Experimental data taken from patent US9656951B2, “Polymorphs of CDDO ethyl ester and uses thereof” (Applied Pharmaceutical Science, Inc., priority 2012, dated 2017).

How the values were obtained:
[1] = tested on: NO production induced by IFN-g in mouse macrophages (RAW 264.7 cells); test: Measurement of NO in RAW 264.7 cells induced by IFN-γ; type: cell-based; settings: RAW264.7 cells, 10 ng/ml IFN-γ, 48 hours
Protocol: Assay Protocol Procedures
1 Maintained RAW264.7 cells in DMEM with 10% FBS at 37° C., 5% CO2.
Induction of NO in RAW264.7 Cells
1. The cells were seeded at 1×10^5/well onto 96-well cell culture plate.
2. After incubation for 2 hours at 37° C. under 5% CO2, the nonadherent cells were removed by aspiration and freshly prepared complete medium with 10 ng/ml IFN-γ and dilluted compounds was added.
3. Incubated the cells at 37° C. under 5% CO2 for another 48 hours.
Measurement of NO in RAW Cells
1. Centrifuged at 1000 rpm for 5 minutes to collect supernatant medium.
2. Prepared 1 ml of a 100 μM nitrite solution by diluting the provided 0.1 M Nitrite Standard 1:1,000 in the matrix or buffer used for the experimental samples.
4. Allowed the Sulfanilamide Solution and NED Solution to equilibrate to room temperature (15-30 minutes).
5. Added 50 μl of each experimental sample to wells in duplicate.
6. Used a multichannel pipettor to dispense 50 μl of the Sulfanilamide Solution to all experimental samples and wells containing the dilution series for the Nitrite Standard.
7. […]
10. Measured absorbance within 30 minutes in a plate reader with a filter between 520 nm and 550 nm.
The inhibitory activities [as measured by the IC50 (nM) value] of Crystalline Form II of the compound of Formula I (CDDO ethyl ester) on NO production induced by IFN-g in mouse macrophages 17 are shown in FIG. 5.

[2] = Stability determination of polymorphs (XRD) at 25° C./60% R.H. and 40° C./75% R.H.; type: physicochemical
Protocol: Other polymorphs of this invention were used similar in the study.
The glassy solid Form of the compound of Formula I, prepared as described in Example 4, was test at 25° C./60% R.H. and 40° C./75% R.H for one week.

in vivo = test: in vivo; set-up: species or system mice; settings: mouse, ip, 10 mg/kg
Protocol: Female CD-I mice were injected ip with 10 mg/kg of the three polymorphs of the compound of Formula I (CDDO ethyl) and methyl 2-cyano-3,12-dioxoIeana-1,9(11)-dien-28-oate (CDDO methyl) in DMSO-cremphor-PBS (1:1:8 weight by weight or volum by volum). Blood samples were collected at 0.083, 0.25, 0.5, 1, 2, 4, 8, and 24 hr post-dose. The levels were quantified by HPLC/MS using compound add to control blood for standard. PK results are shown at Table 3. The systemic exposure of the three polymorphs of the compound of Formula I of CDDO ethyl is higher than that of CDD) methyl. Following is the order: The glassy solid form of CDDO ethyl>Crystalline Form II of CDDO ethyl>Crystalline Form I of CDDO ethyl>CDDO Methyl

[3] = 25° C./60% R.H. and 40° C./75% R.H.

Compound	IC50 ([1]; listed as Crystalline Form II of the compound of Formula I (CDDO ethyl ester)) [nM]	change of XRD on storage [2, 3]	thermodynamic stability compared to other polymorphs [2, 3]	AUCInf (in vivo) [ng·h/mL]	AUClast (in vivo) [ng·h/mL]	Cmax (in vivo) [ng/mL]	t1/2 (in vivo) [h]	tmax (in vivo) [h]	AUC(0-inf) (in vivo; female, CD-I) [ng·h/mL]	AUC(0-t) (in vivo; female, CD-I) [ng·h/mL]	Cmax (in vivo; female, CD-I) [ng/mL]	half-life (in vivo; female, CD-I) [h]	tmax (in vivo; female, CD-I) [h]	IC50 ([1]; listed as glassy solid form of the compound of Formula I (CDDO ethyl ester)) [nM]	change of XRD on storage ([2]; 25° C./60% R.H. and 40° C./75% R.H for one week)
ethyl 2-cyano-3,12-dioxoIeana-1,9(11)-dien-28-oate [Crystalline Form II of CDDO ethyl]	34	no significant change of XRD	most thermodynamically stable crystal form	3840	3443	482	7.3	0.8	–	–	–	–	–	–	–
ethyl 2-cyano-3,12-dioxoIeana-1,9(11)-dien-28-oate [Crystalline Form I of CDDO ethyl]	–	–	–	3456	3221	466	8.3	0.8	–	–	–	–	–	–	–
COC(=O)[C@]12CCC(C)(C)C[C@H]1[C@H]1C(=O)C=C3[C@@]4(C)C=C(C#N)C(=O)C(C)(C)[C@@H]4CC[C@@]3(C)[C@]1(C)CC2 [CDDO Methyl Ester, methyl 2-cyano-3,12-dioxoIeana-1,9(11)-dien-28-oate, reference compound]	–	–	–	–	–	–	–	–	1970	1800	363	6.6	0.8	–	–
ethyl 2-cyano-3,12-dioxoIeana-1,9(11)-dien-28-oate [The glassy solid form of CDDO ethyl]	–	–	–	7526	4721	513	16.1	0.8	–	–	–	–	–	32	no significant change of XRD
